In patent US20210213010A1, “TLR7/8 AGONISTS AND LIPOSOME COMPOSITIONS” (Torque Therapeutics, Inc., priority 2018, published 2021):
Where “and” joins values, the source holds several entries; their conditions need not be identical. Equal values may be shown once. Entries after “also recorded” stand apart in the source; their conditions may differ.

Legend:
[1] = tested on: RAW-Blue cells; assay: NF-κB induction in RAW-Blue reporter cells (RAW 264.7 macrophages, SEAP); format: cell-based; settings: for EC50: RAW-Blue, sigmoidal 4PL fitting, 24 h; for Potency in the RAW-Blue cell assay: compared with R848
Description: This example describes the general procedure used to assess the compounds' potency to induce NF-κB expression in RAW 264.7 macrophages cells that stably express secreted embryonic alkaline phosphatase (SEAP) upon induction of NF-κB. RAW-Blue™ reporter cells are commonly used for quantifying TLR7/8 agonist potencies in reporter cell assays. Conversely, we used RAW-Blue™ cells to evaluate the potencies of the synthesized derivatives, as previously reported^1. ^1 Ryu et al, J. Am. Chem. Soc. (2014), 136, 10823-10825
RAW 264.7 assays were carried out using RAW-Blue™ cells and QUANTI-Blue™ detection solution (Invivogen, Toulouse, France, at. #raw-sp and rep-qbs respectively). The assays carried out according to the protocol from Invivogen. RAW 264.7 macrophages were cultured in DMEM high glucose (4.5 g/L) supplemented with 10% (v/v) FBS, 1% (v/v) P/S, and Normocin™ (100 μg/ml). On the day of the study, the cells were seeded in a 96-well plate (ThermoFisher Scientific, Roskilde, Denmark) with 20 μL TLR7/8 agonist solutions per well at varying concentrations by adding 180 μL cell suspension, made by suspending cells to 0.55×10^6 cells per mL in the prepared cell medium added Zeocin™ (200 μg/ml), leading to a final concentration of 100×10^3 cells per well in triplicates. Cells were incubated with the TLR7/8 agonists, diluted from 10 mM DMSO stocks in PBS, at 37° C. with 5% CO2 for 24 h for SEAP production. 50 μL SEAP containing cell supernatant from each well was added 150 μL QUANTI-Blue™ detection solution and was incubated at 37° C. for 3-6 h. The resulting response was quantified spectrophotometrically at 640 nm and was normalized to the signal from a blank sample (DMSO dilution) run in parallel.
Half maximal effective concentration (EC50) values were determined from sigmoidal 4PL fittings from the resulting dose-response curves in GraphPad Prism.

[2] = Cryo-TEM of remote loaded liposomes (intraliposomal precipitation); format: physicochemical; settings: formulation F3, drug to lipid ratio 0.1
Protocol: CryoTEM samples of 3 μL of liposome solution was placed on a lacy carbon 300 mesh copper TEM grid, blotted and plunge frozen in liquid ethane using a FEI Vitrobot Mark IV. Samples were imaged using a FEI Tecnai G2 20 TWIN transmission electron microscope operated at 200 keV in low dose mode with a FEI High-Sensitive (HS) 4 k×4 k Eagle camera.

[3] = target: T1, mTLR7 (Mus musculus, UniProt P58681); assay: NF-κB induction in HEK-Blue mTLR7 reporter cells; format: cell-based
T1 construct: host or cells: HEK-Blue (HEK293-derived) reporter cells
T1 sequence (P58681 27-1050): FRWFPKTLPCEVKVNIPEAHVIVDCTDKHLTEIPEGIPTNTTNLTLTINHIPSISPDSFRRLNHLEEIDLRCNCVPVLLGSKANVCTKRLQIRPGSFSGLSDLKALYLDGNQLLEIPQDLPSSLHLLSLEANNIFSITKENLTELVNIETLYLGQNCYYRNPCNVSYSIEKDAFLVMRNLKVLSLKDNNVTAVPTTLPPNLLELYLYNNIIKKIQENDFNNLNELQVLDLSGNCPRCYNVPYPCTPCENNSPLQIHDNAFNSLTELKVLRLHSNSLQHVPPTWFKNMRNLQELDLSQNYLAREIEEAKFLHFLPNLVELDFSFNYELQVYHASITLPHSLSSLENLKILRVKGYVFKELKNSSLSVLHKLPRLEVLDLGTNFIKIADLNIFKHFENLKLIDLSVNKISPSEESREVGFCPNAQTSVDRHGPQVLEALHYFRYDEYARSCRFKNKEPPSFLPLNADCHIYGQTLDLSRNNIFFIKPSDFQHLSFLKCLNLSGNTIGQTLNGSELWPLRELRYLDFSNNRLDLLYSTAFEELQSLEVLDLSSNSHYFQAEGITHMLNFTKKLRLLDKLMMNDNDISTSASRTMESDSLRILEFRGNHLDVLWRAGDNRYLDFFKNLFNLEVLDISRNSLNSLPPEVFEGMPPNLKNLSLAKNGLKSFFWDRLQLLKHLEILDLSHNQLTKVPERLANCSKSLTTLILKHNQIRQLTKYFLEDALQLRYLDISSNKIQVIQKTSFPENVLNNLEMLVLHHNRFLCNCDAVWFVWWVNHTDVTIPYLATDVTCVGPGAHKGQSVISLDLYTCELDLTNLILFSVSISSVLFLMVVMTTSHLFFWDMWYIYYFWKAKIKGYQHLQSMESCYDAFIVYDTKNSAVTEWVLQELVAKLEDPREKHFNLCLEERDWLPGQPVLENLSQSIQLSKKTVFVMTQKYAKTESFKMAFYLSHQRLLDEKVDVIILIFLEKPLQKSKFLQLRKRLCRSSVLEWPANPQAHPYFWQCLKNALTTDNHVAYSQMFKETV
Description: This example describes the general procedure used to assess the compounds' potency to induce NF-κB expression in human embryonic kidney (HEK) cells. The transcription factor NF-κB is expressed upon stimulation of TLR7/8 and is commonly used for quantifying TLR7/8 agonist potencies in reporter cell assays. Conversely, we used HEK-Blue mTLR-7 cells to evaluate the potencies of the synthesized derivatives, as previously reported (Shukla et al, J. Med. Chem. (2010), 53, 4450-4465).
HEK-Blue TLR7 assays were carried out using HEK-Blue™ mTLR7 cells (Invivogen, Toulouse, France, Cat. #hkb-mtlr7). The assays were carried out according to the protocol from Invivogen. TLR expressing cells were cultured in DMEM high glucose (4.5 g/L) supplemented with 10% (v/v) fetal bovine serum (FBS) and 1% (v/v) penicillin-streptomycin (P/S) to 50 U/ml penicillin and […] streptomycin. On the day of the study, the cells were seeded in a 96-well plate (ThermoFisher Scientific, Roskilde, Denmark) with 20 μL imidazoquinoline TLR7/8 agonist solutions per well at varying concentrations by adding 180 μL cell suspension, made by suspending cells to 0.22×10^6 cells per mL in HEK-Blue™ Detection medium (Invivogen, Cat. #hb-det2) added Blasticidin (10 μg/ml) and Zeocin™ (100 μg/ml), leading to a final concentration of 40×10^3 cells per well in triplicates. Cells were incubated with the imidazoquinoline TLR7/8 agonists, formulated in liposomes or dissolved in PBS, at 37° C. with 5% CO2 for 16 h. The response was quantified spectrophotometrically at 655 nm and was normalized to the signal from a blank sample (DMSO dilution) run in parallel.

[4] = Remote loading efficiency of small molecules into liposomes (PD-10 size exclusion, HPLC); format: physicochemical; settings: for Remote loading efficiency 1 h (%) / Remote loading efficiency 3 h (%): mean (SD), n = 2
How it was run: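 A lyophilized small-molecule powder (modified TLR agonist) was combined with liposome formulation at the desired drug/lipid ratio and stirred at elevated temperature. At 1 h and 3 h, 100 μL of mixture plus 900 μL buffer (25 mM HEPES, 10 vol % sucrose, pH 7.4) went onto a PD-10 size exclusion column. Ten 1 mL fractions were collected, and HPLC quantified compound in the liposome fractions as a percentage of the amount applied.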

[5] = formulation F3, drug/lipid ratio 0.10, 1 h
[6] = formulation F3, drug/lipid ratio 0.10, 3 h
[7] = formulation F3, drug/lipid ratio 0.25, 1 h
[8] = formulation F3, drug/lipid ratio 0.25, 3 h

Row | Structure (SMILES) | EC50 [1] [nM] | Potency in the RAW-Blue cell assay [1] | Intraliposomal precipitation (Cryo-TEM) [2] | TLR7 agonist activity (NF-κB induction) ([3]; free compounds, 16 h) | TLR7 agonist activity (NF-κB induction) ([3]; liposomal, formulation F3) | Remote loading efficiency 1 h (%) [4, 5] | Remote loading efficiency 3 h (%) [4, 6] | Loading efficiency ([4]; formulation F3, drug/lipid ratio 0.1, time not specified (within 3 h)) [%] | Remote loading efficiency 1 h (%) [4, 7] | Remote loading efficiency 3 h (%) [4, 8] | Remote loading efficiency 1 h (%) ([4]; formulation F4 (250 mM ammonium sulfate), drug/lipid ratio 0.10, 1 h) | Remote loading efficiency 3 h (%) ([4]; formulation F4 (250 mM ammonium sulfate), drug/lipid ratio 0.10, 3 h) | Remote loading efficiency 1 h (%) ([4]; formulation F4 (250 mM ammonium sulfate), drug/lipid ratio 0.25, 1 h) | Remote loading efficiency 3 h (%) ([4]; formulation F4 (250 mM ammonium sulfate), drug/lipid ratio 0.25, 3 h) | Remote loading efficiency 1 h (%) ([4]; formulation F3, drug/lipid ratio 0.50, 1 h) | Remote loading efficiency 3 h (%) ([4]; formulation F3, drug/lipid ratio 0.50, 3 h)
1 | CCCCc1nc2c(N)nc3ccccc3c2n1Cc1ccc(CNC(=O)[C@@H](N)Cc2ccccc2)cc1 [MK138, (S)-2-amino-N-(4-((4-amino-2-butyl-1H-imidazo[4,5-c]quinolin-1-yl)methyl)benzyl)-3-phenylpropanamide] | 40 | greater potencies than R848 | precipitated to form rod-like crystals | a higher response than both MK130 and R848 at 1 μM; also recorded: only little activity was observed at concentrations <0.32 μM | potencies much higher than R848 | 82.5 (1.2) % and 82.6 (1.2) % | 86% and 86.2 (0.2) % and 86.2 (0.1) % | ≤ 90 | 5% and 5.1 (0.1) % | 0.5 (0.1) % | 96.5 (3.3) % | 100% and 100.0 (0.1) % | 93% and 93.0 (5.7) % | 96.5 (0.7) % |  | 
2 | CCCCc1nc2c(N)nc3ccccc3c2n1Cc1ccc(CN)cc1 [MK130, 1-(4-(aminomethyl)benzyl)-2-butyl-1H-imidazo[4,5-c]quinolin-4-amine] | 30 | the most potent compounds | slight precipitation |  | potencies much higher than R848 | 93.8 (5.8) % | 96.7 (1.3) % |  | 45.9 (1.9) % | 48.9 (2.1) % |  |  |  |  | 19.7 (0.4) % | 20% and 19.5 (1.1) %
